Values quoted from earlier work, collected in patent US12687554B2, “Molecular profiling of tumors” (Caris MPI, Inc., priority 2006, dated 2026).
Entries after “also recorded” stand apart in the source; their conditions may differ. Read-outs that look alike come from different tables or passages of the source.

System: differentially expressed or mutated biomarker in cancer cells
[1] = EGFR, FISH, Positive, with loss of PTEN, mutation of KRAS or BRAF per Summary
[2] = KRAS, Mutational Analysis, Mutated
[3] = KRAS, Mutational Analysis, Wild type genotype
[4] = KRAS, Mutational Analysis, Wild type genotype, with loss of PTEN and/or FISH negative EGFR per Summary
[5] = PTEN, IHC, Above Threshold, with the other biomarker results named in the Summary
[6] = biomarker EGFR, FISH, result Negative (lack of EGFR gene copy number increase)
[7] = biomarker EGFR, FISH, result Positive, with the other biomarker results named in the Summary
[8] = biomarker KRAS, Mutational Analysis, result Mutated
[9] = biomarker KRAS, Mutational Analysis, result Wild type genotype, with the other biomarker results named in the Summary
[10] = biomarker PTEN, IHC, result Above Threshold, with the other biomarker results named in the Summary
[11] = biomarker PTEN, IHC, result Negative (loss of PTEN protein expression)
[12] = EGFR, Mutational Analysis, Mutated
[13] = EGFR, Mutational Analysis, Wild type genotype
[14] = biomarker EGFR, FISH, result Positive (high EGFR gene copy number)
[15] = biomarker EGFR, Mutational Analysis, result Mutated
[16] = biomarker EGFR, Mutational Analysis, result Mutated, with the other biomarker results named in the Summary
[17] = biomarker EGFR, Mutational Analysis, result Wild type genotype
[18] = biomarker KRAS, Mutational Analysis, result Wild type genotype

panitumumab
Resistant Agents (BRAF, Mutational Analysis, Mutated): panitumumab | Recommended Agents (BRAF, Mutational Analysis, Wild type genotype): panitumumab | Resistant Agents (BRAF, Mutational Analysis, Wild type genotype, with loss of PTEN and/or FISH negative EGFR per Summary): panitumumab | Resistant Agents [1]: panitumumab, | Resistant Agents [2]: panitumumab, | Recommended Agents [3]: panitumumab, | Resistant Agents [4]: panitumumab, | Recommended Agents [5]: panitumumab,; also recorded: panitumumab | Resistant Agents [5]: panitumumab, | Resistant Agents (PTEN, IHC, Negative): panitumumab, | Resistant Agents (biomarker BRAF, Mutational Analysis, result Mutated): panitumumab | Resistant Agents (biomarker BRAF, Mutational Analysis, result Wild type genotype, with the other biomarker results named in the Summary): panitumumab | Resistant Agents [6]: panitumumab, | Resistant Agents [7]: panitumumab, | Resistant Agents [8]: panitumumab, | Resistant Agents [9]: panitumumab, | Resistant Agents [10]: panitumumab, | Resistant Agents [11]: panitumumab,

Cc1ccc(NC(=O)c2ccc(CN3CCN(C)CC3)cc2)cc1Nc1nccc(-c2cccnc2)n1 [imatinib]
Recommended Agents (c-kit, Mutational Analysis, Mutated, mutations in exon 9): imatinib | Resistant Agents (c-kit, Mutational Analysis, Mutated, mutations in exon 11): imatinib | Recommended Agents (c-kit, Mutational Analysis, Wild type genotype): imatinib

CC(=O)Oc1ccccc1C(=O)O [aspirin]
Recommended Agents (COX-2, IHC, Above Threshold): aspirin | Resistant Agents (COX-2, IHC, Negative): aspirin

CC(=O)Oc1ccccc1C(=O)O [asprin]
Recommended Agents (COX-2, Microarray, Overexpressed): asprin

COc1cc2ncnc(Nc3ccc(F)c(Cl)c3)c2cc1OCCCN1CCOCC1 [Gefitinib]
Resistant Agents (EGFR, FISH, Negative): Gefitinib | Resistant Agents [1]: Gefitinib | Recommended Agents [12]: Gefitinib | Resistant Agents [13]: Gefitinib | Recommended Agents [5]: Gefitinib; also recorded: Gefitinib, | Resistant Agents [5]: Gefitinib | Resistant Agents [10]: Gefitinib | Resistant Agents [11]: Gefitinib,; also recorded: Gefitinib

C#Cc1cccc(Nc2ncnc3cc(OCCOC)c(OCCOC)cc23)c1 [erlotinib]
Resistant Agents (EGFR, FISH, Negative): erlotinib | Recommended Agents (EGFR, FISH, Positive): erlotinib | Resistant Agents [1]: erlotinib | Resistant Agents [2]: erlotinib | Recommended Agents [3]: erlotinib | Resistant Agents [4]: erlotinib | Recommended Agents [5]: erlotinib | Resistant Agents [5]: erlotinib | Resistant Agents (PTEN, IHC, Negative): erlotinib | Resistant Agents [6]: erlotinib | Recommended Agents [14]: erlotinib | Resistant Agents [7]: erlotinib | Recommended Agents [15]: erlotinib | Resistant Agents [16]: erlotinib | Resistant Agents [17]: erlotinib | Recommended Agents [18]: erlotinib | Resistant Agents [9]: erlotinib | Resistant Agents [10]: erlotinib | Resistant Agents [11]: erlotinib,

CC1=C(/C=C/C(C)=C/C=C/C(C)=C/C(=O)O)C(C)(C)CCC1 [ATRA]
Recommended Agents (RARA, Microarray, Overexpressed, for use only on hematologic malignancies): ATRA

CS(=O)(=O)CCNCc1ccc(-c2ccc3ncnc(Nc4ccc(OCc5cccc(F)c5)c(Cl)c4)c3c2)o1 [lapatinib]
Recommended Agents (Her2/Neu, FISH, Amplified): lapatinib | Resistant Agents (Her2/Neu, FISH, Not Amplified): lapatinib | Recommended Agents (Her2/Neu, IHC, Above Threshold): lapatinib | Resistant Agents (Her2/Neu, IHC, Negative): lapatinib | Resistant Agents [5]: lapatinib | Resistant Agents (PTEN, IHC, Negative): lapatinib

COc1cc2ncnc(Nc3ccc(F)c(Cl)c3)c2cc1OCCCN1CCOCC1 [gefitinib]
Recommended Agents (EGFR, FISH, Positive): gefitinib | Resistant Agents [1]: gefitinib | Resistant Agents [2]: gefitinib | Recommended Agents [3]: gefitinib | Resistant Agents [4]: gefitinib | Recommended Agents [5]: gefitinib | Resistant Agents [5]: gefitinib | Resistant Agents (PTEN, IHC, Negative): gefitinib | Resistant Agents [6]: gefitinib | Recommended Agents [14]: gefitinib | Resistant Agents [7]: gefitinib | Recommended Agents [15]: gefitinib | Resistant Agents [16]: gefitinib | Resistant Agents [17]: gefitinib | Resistant Agents [8]: gefitinib | Recommended Agents [18]: gefitinib | Resistant Agents [9]: gefitinib | Recommended Agents (biomarker PTEN, IHC, result Above Threshold): gefitinib | Resistant Agents [10]: gefitinib

C#Cc1cccc(Nc2ncnc3cc(OCCOC)c(OCCOC)cc23)c1 [Erlotinib]
Resistant Agents (EGFR, FISH, Negative): Erlotinib | Resistant Agents [1]: Erlotinib | Recommended Agents [12]: Erlotinib | Resistant Agents [13]: Erlotinib | Recommended Agents [5]: Erlotinib; also recorded: Erlotinib, | Resistant Agents (PTEN, IHC, Negative): Erlotinib, | Resistant Agents [10]: Erlotinib | Resistant Agents [11]: Erlotinib,; also recorded: Erlotinib

Panitumumab
Resistant Agents [1]: Panitumumab, | Recommended Agents [5]: Panitumumab, | Resistant Agents [10]: Panitumumab, | Resistant Agents [11]: Panitumumab,
